Source: patent publication US12617784B2, “AKT inhibitor” (Nanjing Chia Tai Tianqing Pharmaceutical Co., Ltd., priority 2019, dated 2026)
Counter-ions that a name gives are not always drawn.

What was measured:
Format in all cases: biochemical
AKT1 = AKT1 (Homo sapiens, UniProt P31749); experiment: In vitro enzyme activity test (HTRF kinEASE TK), AKT1; settings: ATP 2 μM, enzyme 0.6 ng/well, reaction 50 min
Protocol: (§1) Experimental Procedure 2.1 Preparation of Reagents
(§2) 1 mL 1× Kinase Reaction Buffer of Kinase AKT1, AKT2 and AKT3 contain 200 μL 5× Kinase Reaction Buffer, 5 μL 1 M MgCl2, 1 μL 1 M DTT and 794 μL ultrapure water.
(§3) In addition to the control wells, 4 μL of the diluted compound working solutions were added to all reaction wells.
(§4) b) 2 μL of the previously prepared TK-biotin substrate solution was added to all reaction wells.
(§5) c) 2 μL of the previously prepared enzyme solution was added to all reaction wells, except the negative wells. The volume of the negative well was filled with 2 μL of enzyme corresponding to 1× kinase reaction buffer. The plate was sealed with sealing film. After mixing, the plate was incubated at room temperature for 10 min to allow the compound and enzyme to fully combined.
(§6) d) 2 μL of ATP solution was added to all reaction wells to start the kinase reaction.
(§7) e) The test solution was prepared 5 min before the end of the kinase reaction.
(§8) f) After the kinase reaction was completed, 5 μL of diluted streptavidin-XL665 were added to all reaction wells, and immediately the diluted europium-labeled tyrosine kinase substrate antibody detection solution was added after mixing.
(§9) g) The plate was sealed and mixed well. […] The inhibition rate of each well was calculated through the fully active wells and the background signal wells, taking the average value in case of multiple wells. Meanwhile, the professional drawing analysis software PRISM 6.0 was used to fit the half maximal inhibitory concentration (IC50) of each test compound.

AKT2 = biological target: T1, AKT2 (Homo sapiens, UniProt P31751); experiment: In vitro enzyme activity test (HTRF kinEASE TK), AKT2; settings: ATP 20 μM, enzyme 0.1 ng/well, reaction 50 min
T1 construct: purchased Carna 01-102
T1 sequence (P31751 whole entry): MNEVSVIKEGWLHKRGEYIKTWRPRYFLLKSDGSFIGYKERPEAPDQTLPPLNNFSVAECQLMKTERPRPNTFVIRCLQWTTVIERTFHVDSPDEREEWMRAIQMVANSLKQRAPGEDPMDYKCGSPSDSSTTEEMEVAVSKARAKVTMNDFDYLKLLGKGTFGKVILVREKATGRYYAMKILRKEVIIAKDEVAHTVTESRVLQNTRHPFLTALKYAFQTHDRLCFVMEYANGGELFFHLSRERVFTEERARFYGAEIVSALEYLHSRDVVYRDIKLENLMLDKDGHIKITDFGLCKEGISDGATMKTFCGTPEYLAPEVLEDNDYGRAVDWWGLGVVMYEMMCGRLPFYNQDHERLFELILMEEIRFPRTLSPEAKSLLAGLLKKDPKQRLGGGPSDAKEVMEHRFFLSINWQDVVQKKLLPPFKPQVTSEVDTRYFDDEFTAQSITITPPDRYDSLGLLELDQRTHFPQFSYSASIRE
Protocol: as §1, §2, §3, §4, §5, §6, §7, §8, §9

AKT3 = biological target: T2, AKT3 (Homo sapiens, UniProt Q9Y243); experiment: In vitro enzyme activity test (HTRF kinEASE TK), AKT3; settings: enzyme 0.3 ng/well, reaction 50 min
T2 construct: purchased Invitrogen PV3185
T2 sequence (Q9Y243 whole entry): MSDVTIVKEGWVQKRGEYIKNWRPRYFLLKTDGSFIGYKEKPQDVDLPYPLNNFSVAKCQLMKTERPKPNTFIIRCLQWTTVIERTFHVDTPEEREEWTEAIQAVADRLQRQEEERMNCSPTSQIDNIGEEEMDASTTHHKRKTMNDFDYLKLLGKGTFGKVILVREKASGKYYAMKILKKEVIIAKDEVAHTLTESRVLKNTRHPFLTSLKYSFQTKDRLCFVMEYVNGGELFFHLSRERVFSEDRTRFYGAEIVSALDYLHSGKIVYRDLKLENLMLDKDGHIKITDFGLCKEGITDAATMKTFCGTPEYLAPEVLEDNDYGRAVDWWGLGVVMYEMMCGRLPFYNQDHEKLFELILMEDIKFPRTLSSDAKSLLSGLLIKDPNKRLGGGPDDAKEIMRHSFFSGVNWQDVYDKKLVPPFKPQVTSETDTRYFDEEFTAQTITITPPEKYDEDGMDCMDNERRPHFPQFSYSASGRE
Protocol: as §1, §2, §3, §4, §5, §6, §7, §8, §9

Sequence of AKT1 (P31749 whole entry): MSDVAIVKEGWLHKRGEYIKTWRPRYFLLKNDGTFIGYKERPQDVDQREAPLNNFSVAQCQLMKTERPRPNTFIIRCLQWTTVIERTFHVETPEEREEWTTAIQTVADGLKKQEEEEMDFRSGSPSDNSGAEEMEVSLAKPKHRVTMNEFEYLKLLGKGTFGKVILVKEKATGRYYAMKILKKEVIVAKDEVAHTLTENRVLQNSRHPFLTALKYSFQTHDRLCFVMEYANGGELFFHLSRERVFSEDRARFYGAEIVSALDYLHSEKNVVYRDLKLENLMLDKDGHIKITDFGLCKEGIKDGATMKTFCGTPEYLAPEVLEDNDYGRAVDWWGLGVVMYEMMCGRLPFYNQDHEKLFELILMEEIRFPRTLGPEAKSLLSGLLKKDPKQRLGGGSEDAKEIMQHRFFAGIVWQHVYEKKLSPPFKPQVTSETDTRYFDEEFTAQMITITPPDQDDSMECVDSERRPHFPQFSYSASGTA

Row | SMILES | IC50 (AKT1) | IC50 (AKT2) | IC50 (AKT3)
1 | CC(C)NC[C@@H](C(=O)N1C2CCC1CN(c1ncnc3c1[C@@H]1C[C@@H]1C(=O)N3)C2)c1ccc(Cl)cc1 (single isomer, unassigned) [Example 39 Isomer 1] | 13 nM | 75 nM | 7.6 nM
2 | CC(C)NC[C@@H](C(=O)N1C2CCC1CN(c1ncnc3c1[C@H]1C[C@H]1C(=O)N3)C2)c1ccc(Cl)cc1 (single isomer, unassigned) [Example 39 Isomer 2] | 151 nM | 756 nM | 43 nM
3 | CC(C)NCC(C(=O)N1CCN(c2ncnc3c2[C@H](C)CC(=O)N3)C[C@@H]1C)c1ccc(Cl)cc1 (stereo in doubt) [Example 9, (R)-4-((S)-4-((R)-2-(4-chlorophenyl)-3-(isopropylamino)propionyl)-3-methylpiperazin-1-yl)-5-methyl-5,8-dihydropyrido[2,3-d]pyrimidin-7(6H)-one] | 167 nM | 206 nM | 3.3 nM
4 | CC(C)NC[C@@H](C(=O)N1CCN(c2ncnc3c2[C@H](C)CC(=O)N3)CC1)c1ccc(Cl)cc1 [Example 2 (R) Configur- ation product, (R)-4-(4-((S)-2-(4-chlorophenyl)-3-(isopropylamino)propionyl)piperazin-1-yl)-5-methyl-5,8-dihydropyrido[2,3-d]pyrimidin-7(6H)-one] | 2.4 nM | 4.3 nM | 0.4 nM
5 | C[C@@H]1CC(=O)Nc2ncnc(N3CCN(C(=O)C4(c5ccc(Cl)cc5)CCNCC4)CC3)c21 [Example 18, (R)-4-(4-(4-(4-chlorophenyl)piperidin-4-carbonyl)piperazin-1-yl)-5-methyl-5,8-dihydropyrido[2,3-d]pyrimidin-7(6H)-one formate] | 590 nM | 256 nM | 20.1 nM
6 | CC(C)NC[C@@H](C(=O)N1CCN(c2ncnc3c2N(C)CC(=O)N3)C[C@@H]1C)c1ccc(Cl)cc1 [Example 22, 4-((S)-4-((S)-2-(4-chlorophenyl)-3-(isopropylamino)propionyl)-3-methylpiperazin-1-yl)-5-methyl-5,8-dihydropteridine-7(6H)-one] | 39 nM | 334 nM | 0.56 nM
7 | CCN1CC(=O)Nc2ncnc(N3CC4CCC(C3)N4C(=O)[C@H](CNC(C)C)c3ccc(Cl)cc3)c21 [Example 28] | 2.1 nM | 89 nM | 0.19 nM
8 | CC(C)NC[C@@H](C(=O)N1C2CCC1CN(c1ncnc3c1N(CCO)CC(=O)N3)C2)c1ccc(Cl)cc1 [Example 31] | 210 nM | ≥ 1000 nM | 1.8 nM
9 | CC(C)NC[C@@H](C(=O)N1C2CCC1CN(c1ncnc3[nH]c(=O)c(=O)n(C)c13)C2)c1ccc(Cl)cc1 [Example 36, 4-(8-((S)-2-(4-chlorophenyl)-3-(isopropylamino)propionyl)-3,8-diazabicyclo[3.2.1]octan-3-yl)-5-methyl-5,8-dihydropteridine-6,7-dione] | 77 nM | 800 nM | 22 nM
10 | C[C@@H]1CC(=O)Nc2ncnc(N3CC4CCC(C3)N4C(=O)[C@H](CNC3CC3)c3ccc(Cl)cc3)c21 [Example 38] | 2.4 nM | 23 nM | 0.28 nM
